Measurements from ChEMBL document CHEMBL1833828, “Efficient conversion of a nonselective norepinephrin reuptake inhibitor into a dual muscarinic antagonist-β₂-agonist for the treatment of chronic obstructive pulmonary disease” (J Med Chem, 2011).

Assays:
[1] = target: T1, Muscarinic acetylcholine receptor M3 (Homo sapiens, UniProt P20309); assay: Displacement of [3H]N-methylscopolamine from human M3 receptor
Target sequence in this assay (P20309 whole entry): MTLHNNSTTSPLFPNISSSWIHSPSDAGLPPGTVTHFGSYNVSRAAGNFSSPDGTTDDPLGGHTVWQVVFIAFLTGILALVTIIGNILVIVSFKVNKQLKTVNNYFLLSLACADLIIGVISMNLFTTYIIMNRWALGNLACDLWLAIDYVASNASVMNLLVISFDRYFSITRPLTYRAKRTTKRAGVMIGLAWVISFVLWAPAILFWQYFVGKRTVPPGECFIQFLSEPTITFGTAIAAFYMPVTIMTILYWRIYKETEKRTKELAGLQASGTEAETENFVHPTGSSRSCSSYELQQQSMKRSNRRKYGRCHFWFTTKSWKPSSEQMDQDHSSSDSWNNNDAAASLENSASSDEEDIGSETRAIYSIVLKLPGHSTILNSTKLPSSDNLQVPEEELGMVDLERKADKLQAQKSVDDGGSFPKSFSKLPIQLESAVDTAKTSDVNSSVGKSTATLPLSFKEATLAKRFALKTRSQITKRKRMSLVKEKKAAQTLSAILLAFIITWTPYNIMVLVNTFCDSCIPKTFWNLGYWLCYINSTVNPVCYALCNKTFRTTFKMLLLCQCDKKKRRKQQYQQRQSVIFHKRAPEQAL

[2] = Metabolic stability in human liver microsomes; format: ADME, Microsome; conditions: read-out: Stability
[3] = target: T2, Sodium-dependent noradrenaline transporter (Homo sapiens, UniProt P23975); assay: Displacement of [3H]nisoxetine from human NET receptor
T2 sequence (P23975 whole entry): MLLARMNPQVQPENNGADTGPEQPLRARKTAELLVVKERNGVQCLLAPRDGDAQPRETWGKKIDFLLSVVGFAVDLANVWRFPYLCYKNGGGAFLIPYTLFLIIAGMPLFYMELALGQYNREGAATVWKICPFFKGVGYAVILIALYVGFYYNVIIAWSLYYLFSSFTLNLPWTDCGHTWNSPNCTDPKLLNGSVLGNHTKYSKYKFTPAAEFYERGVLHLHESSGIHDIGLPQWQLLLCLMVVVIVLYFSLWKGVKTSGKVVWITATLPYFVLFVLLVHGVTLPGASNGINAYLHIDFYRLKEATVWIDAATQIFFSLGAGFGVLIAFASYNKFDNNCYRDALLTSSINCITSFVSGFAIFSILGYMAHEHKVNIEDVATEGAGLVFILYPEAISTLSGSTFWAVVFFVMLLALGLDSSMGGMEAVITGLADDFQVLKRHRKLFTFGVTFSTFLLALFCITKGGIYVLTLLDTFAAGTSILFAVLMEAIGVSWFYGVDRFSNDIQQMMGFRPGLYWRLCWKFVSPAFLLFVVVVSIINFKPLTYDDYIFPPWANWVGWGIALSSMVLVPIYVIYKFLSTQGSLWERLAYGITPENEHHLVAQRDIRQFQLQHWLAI

[4] = Lipophilicity, log D of the compound; format: physicochemical; conditions: octanol/water
[5] = Bronchodilatory action against electrical field-stimulated constriction in guinea pig trachea assessed as time taken for the muscle tone at EC70 to recover by 50% of inhibition induced in the presence of beta-2 adrenergic receptor antagonist propranolol; format: functional, Cavia porcellus
[6] = target: T3, Beta-2 adrenergic receptor (Homo sapiens, UniProt P07550); assay: Agonist activity at human beta-2 adrenergic receptor expressed in CHO cells assessed as induction of intracellular cAMP production; format: functional, cell-based
Target sequence in this assay (P07550 whole entry): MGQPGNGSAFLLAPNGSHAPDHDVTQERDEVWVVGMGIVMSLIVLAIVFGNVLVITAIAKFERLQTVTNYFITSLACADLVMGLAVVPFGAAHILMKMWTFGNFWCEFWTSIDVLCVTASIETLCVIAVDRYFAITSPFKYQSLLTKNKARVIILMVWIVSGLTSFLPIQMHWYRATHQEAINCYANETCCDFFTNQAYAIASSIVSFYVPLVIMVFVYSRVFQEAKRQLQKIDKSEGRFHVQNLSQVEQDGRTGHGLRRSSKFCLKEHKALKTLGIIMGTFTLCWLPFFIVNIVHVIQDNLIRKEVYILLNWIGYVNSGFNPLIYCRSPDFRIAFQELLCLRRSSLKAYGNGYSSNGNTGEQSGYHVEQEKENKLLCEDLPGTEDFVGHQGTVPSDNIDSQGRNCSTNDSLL

[7] = target: Beta-1 adrenergic receptor (Homo sapiens, UniProt P08588); assay: Agonist activity at beta-1 adrenergic receptor; format: functional
Chain of Beta-1 adrenergic receptor (P08588 whole entry): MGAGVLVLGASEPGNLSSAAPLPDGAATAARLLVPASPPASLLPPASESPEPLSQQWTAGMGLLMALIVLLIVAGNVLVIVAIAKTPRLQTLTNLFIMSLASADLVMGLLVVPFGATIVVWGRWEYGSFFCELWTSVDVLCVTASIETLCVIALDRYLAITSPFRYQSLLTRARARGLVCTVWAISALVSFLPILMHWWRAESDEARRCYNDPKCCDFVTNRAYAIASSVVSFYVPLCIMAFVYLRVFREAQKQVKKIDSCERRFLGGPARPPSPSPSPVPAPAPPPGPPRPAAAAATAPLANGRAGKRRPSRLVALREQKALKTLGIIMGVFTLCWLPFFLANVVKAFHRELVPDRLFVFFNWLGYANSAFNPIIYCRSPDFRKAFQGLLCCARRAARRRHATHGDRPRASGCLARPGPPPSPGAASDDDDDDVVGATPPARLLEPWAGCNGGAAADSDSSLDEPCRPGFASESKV

[8] = Bronchodilatory action in guinea pig trachea assessed as inhibition of electrical field-stimulated acetylcholine release in the presence of beta-2 adrenergic receptor antagonist propranolol; format: functional, tissue-based, Cavia porcellus
[9] = species: Cavia porcellus; assay: Bronchodilatory action in guinea pig trachea assessed as inhibition of electrical field-stimulated acetylcholine release; format: functional
[10] = Bronchodilatory action against electrical field-stimulated constriction in guinea pig trachea assessed as time taken for the muscle tone at EC70 to recover by 50% of inhibition induced; format: functional, Cavia porcellus
[11] = Permeability across human Caco2 cells; format: ADME, cell-based; conditions: Caco-2, read-out: permeability
[12] = target: T3, Beta-2 adrenergic receptor; assay: Agonist activity at human cloned beta-2 adrenergic receptor expressed in CHO cells after compound wash-out relative to unwashed cells; format: functional, cell-based
Target sequence in this assay (P07550 whole entry, looked up): as the sequence (P07550 whole entry) above

[13] = target: T1, Muscarinic acetylcholine receptor M3; assay: Antagonist activity at human cloned M3 receptor assessed as time taken to reach 50% of total [3H]NMS for solvent treated membranes by dilution-offset method; format: functional
Target sequence in this assay (P20309 whole entry, looked up): as the sequence (P20309 whole entry) above

[14] = target: T2, Sodium-dependent noradrenaline transporter; assay: Binding affinity at human NET receptor at 10 uM

Structure (SMILES) | Ki [1] | microsomal CLint [2] | Ki [3] | logD [4] | Time [5] | EC50 [6] | EC50 [7] | EC50 [8] | EC50 [9] | Time [10] | Papp [11] | fold change (FC) [12] | TIME [13] | Activity [14]
Oc1cccc(F)c1-n1nc(OC2CCNCC2)c2c1CCCC2 | 2.5 nM | < 8 µL/min/mg | 2900 nM | 0.3 | – | – | – | – | – | – | – | – | – | –
O=c1ccc2c([C@@H](O)CNCCCCCCCCCN3CCC(Oc4nn(-c5c(O)cccc5F)c5c4CCCC5)CC3)ccc(O)c2[nH]1 | 2.2 nM | 25 µL/min/mg | – | 2.4 | >16 h | 14 nM | > 10000 nM | 27 nM | 28 nM | >16 h | < 1 ×10⁻⁶ cm/s | 1.5 | < 0.267 h | –
Cc1ccc(O)c([C@H](CCN(C(C)C)C(C)C)c2ccccc2)c1 [TOLTERODINE] | – | < 8 µL/min/mg | – | 1.8 | – | – | – | – | – | – | – | – | – | 15%

Second part, led by results:

Ki [1] | microsomal CLint [2] | Ki [3] | logD [4] | Structure (SMILES) | Time [5] | EC50 [6] | EC50 [7] | EC50 [8] | EC50 [9] | Time [10] | Papp [11] | fold change (FC) [12] | TIME [13] | Activity [14]
49 nM | < 8 µL/min/mg | 6.8 nM | 1.4 | Fc1cccc(F)c1-n1nc(OC2CCNCC2)c2ccccc21 | – | – | – | – | – | – | – | – | – | –
10 nM | < 8 µL/min/mg | – | 0.6 | Oc1cccc(F)c1-n1nc(OC2CCNCC2)c2ccccc21 | – | – | – | – | – | – | – | – | – | –
